From patent US10428067B2, “Compounds and methods for kinase modulation” (Plexxikon Inc., priority 2017, dated 2019)

Legend:
TGFβR2 = TGFβR2 (Homo sapiens, UniProt P37173); test: Biochemical TGFβR2 assay (LanthaScreen Europium Kinase Binding Assay); settings: geometric mean; tracer displacement, five concentrations 1.0-0.0039 μM in duplicate; read-out: TGFBR2 GMean: IC50 (μM) (Biochemical Assay)
Experimental: The IC50 of certain compounds in this disclosure against TGFβR2 was conducted under contract at Thermo Fisher Scientific, Life Sciences Solutions as part of their SelectScreen™ profiling service. The TGFβR2 assay used the LanthaScreen® Europium Kinase Binding Assay. Binding of an Alexa Fluor® conjugate Tracer 199 (100 nM) to TGFβR2 (5 nM) was detected by addition of a Eu-labeled anti-tag antibody (5 nM) in Kinase Buffer A (50 mM HEPES pH 7.5, 0.01% BRIJ-35, 10 mM MgCl2, 1 mM EGTA) and 1% final DMSO. […] The percent inhibition was calculated from the emission ratio of Alexa Fluor® and Europium as documented by Thermo Fisher (www.thermofisher.com/kinaseprofiling). The IC50 of certain compounds in this disclosure was determined by testing a dilution series of the compound in duplicate at five concentrations (1.0, 0.25, 0.062, 0.015 and 0.0039 μM) by fitting the inhibition data with a sigmoidal curve fit model.
Table II provides data indicating TGFBR2 biochemical inhibitory activities for exemplary compounds as described herein.

FLT3 D835Y = target: T1, FLT3 D835Y (Homo sapiens, UniProt P36888, D835Y); test: Biochemical FLT3 D835Y assay; settings: geometric mean; assay as in US2017/0267660; read-out: FLT3 D835Y GMean: IC50 (μM) (Biochemical Assay)
T1 sequence (P36888 27-993 D835Y): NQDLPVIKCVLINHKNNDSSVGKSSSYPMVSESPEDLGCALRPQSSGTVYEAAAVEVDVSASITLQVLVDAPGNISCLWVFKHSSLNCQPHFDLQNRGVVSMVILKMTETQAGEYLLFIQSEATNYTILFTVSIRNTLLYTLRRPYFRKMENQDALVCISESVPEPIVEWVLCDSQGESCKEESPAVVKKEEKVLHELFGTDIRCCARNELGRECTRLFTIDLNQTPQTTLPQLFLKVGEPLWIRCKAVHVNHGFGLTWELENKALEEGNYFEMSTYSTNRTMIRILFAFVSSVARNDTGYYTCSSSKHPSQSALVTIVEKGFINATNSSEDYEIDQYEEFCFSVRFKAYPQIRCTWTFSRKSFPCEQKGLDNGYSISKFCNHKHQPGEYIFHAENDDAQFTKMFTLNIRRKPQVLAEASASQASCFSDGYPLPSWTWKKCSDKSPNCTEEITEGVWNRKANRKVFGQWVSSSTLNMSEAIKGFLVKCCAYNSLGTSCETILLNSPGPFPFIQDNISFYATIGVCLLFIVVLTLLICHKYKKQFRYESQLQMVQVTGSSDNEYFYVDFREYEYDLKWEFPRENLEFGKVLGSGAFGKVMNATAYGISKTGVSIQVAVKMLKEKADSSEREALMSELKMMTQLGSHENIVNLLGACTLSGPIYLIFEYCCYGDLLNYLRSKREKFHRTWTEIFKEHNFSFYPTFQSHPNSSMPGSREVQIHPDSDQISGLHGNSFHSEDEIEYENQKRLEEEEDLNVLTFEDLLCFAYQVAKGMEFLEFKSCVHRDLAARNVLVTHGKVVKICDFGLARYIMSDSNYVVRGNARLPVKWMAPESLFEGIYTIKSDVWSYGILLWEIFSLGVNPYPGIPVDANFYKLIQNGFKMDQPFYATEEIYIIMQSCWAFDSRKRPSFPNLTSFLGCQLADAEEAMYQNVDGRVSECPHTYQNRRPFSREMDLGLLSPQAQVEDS
Experimental: FLT3 D835Y assays were conducted on certain compounds of this disclosure as described in U.S. Patent Publication No. US2017/0267660.
Table II provides data indicating FLT3 D835Y biochemical inhibitory activities for exemplary compounds as described herein.

[1] = test system: quizartinib resistance-causing mutants of FLT3-ITD; settings: all identified quizartinib resistance-causing mutants and other mutant isoforms (Smith et al.); cited from earlier work

Chain of TGFβR2 (P37173 23-567): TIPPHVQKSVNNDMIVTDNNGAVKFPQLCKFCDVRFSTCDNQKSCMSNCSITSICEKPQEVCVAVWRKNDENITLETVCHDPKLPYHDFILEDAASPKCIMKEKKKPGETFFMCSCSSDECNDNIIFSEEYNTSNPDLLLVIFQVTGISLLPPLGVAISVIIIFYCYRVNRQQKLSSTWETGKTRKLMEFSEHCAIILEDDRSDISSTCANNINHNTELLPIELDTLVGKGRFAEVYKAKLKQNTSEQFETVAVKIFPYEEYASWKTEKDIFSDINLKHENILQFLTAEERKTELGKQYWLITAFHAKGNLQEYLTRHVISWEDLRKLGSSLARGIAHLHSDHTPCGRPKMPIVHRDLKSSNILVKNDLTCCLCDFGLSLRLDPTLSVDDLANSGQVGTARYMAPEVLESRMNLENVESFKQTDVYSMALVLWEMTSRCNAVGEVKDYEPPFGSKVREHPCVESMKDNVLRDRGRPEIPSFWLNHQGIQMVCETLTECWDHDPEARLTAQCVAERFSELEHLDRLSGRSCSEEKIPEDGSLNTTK

Structure (SMILES) | IC50 (TGFβR2) | IC50 (FLT3 D835Y) | activity against quizartinib resistance-causing mutants [1]
CC(C)(C#N)NC(=O)c1cccc(-c2cnc3[nH]c(-c4cnn(CC#N)c4)cc3c2)n1 [P-001, 6-(2-(1-(cyanomethyl)-1H-pyrazol-4-yl)-1H-pyrrolo[2,3-b]pyridin-5-yl)-N-(2-cyanopropan-2-yl)picolinamide] | 0.0001 to 10 µM | 0.0001 to 10 µM | –
CC(C)(C#N)NC(=O)c1cccc(-c2cnc3[nH]c(-c4cnn(C(F)F)c4)c(Br)c3c2)n1 [P-005, 6-[3-bromo-2-[1-(difluoromethyl)pyrazol-4-yl]-1H-pyrrolo[2,3-b]pyridin-5-yl]-N-(1-cyano-1-methyl-ethyl)pyridine-2-carboxamide] | 0.0001 to 10 µM | 0.0001 to 10 µM | –
O=C(NC1CS(=O)(=O)C1)c1cccc(-c2cnc3[nH]c(-c4cnn(C(F)F)c4)cc3c2)n1 [P-010, 6-(2-(1-(difluoromethyl)-1H-pyrazol-4-yl)-1H-pyrrolo[2,3-b]pyridin-5-yl)-N-(1,1-dioxidothietan-3-yl)picolinamide] | 0.0001 to 10 µM | 0.0001 to 10 µM | –
CNC(=O)c1cc(Oc2ccc(NC(=O)Nc3ccc(Cl)c(C(F)(F)F)c3)cc2)ccn1 [sorafenib] | – | – | ineffective
O=C(NCC1(O)CC1)c1cccc(-c2cnc3[nH]c(-c4cnn(C(F)F)c4)cc3c2)n1 [P-012, 6-(2-(1-(difluoromethyl)-1H-pyrazol-4-yl)-1H-pyrrolo[2,3-b]pyridin-5-yl)-N-((1-hydroxycyclopropyl)methyl)picolinamide] | 0.0001 to 10 µM | 0.0001 to 10 µM | –
O=C(NC1COC1)c1cccc(-c2cnc3[nH]c(-c4cnn(C(F)F)c4)cc3c2)n1 [P-014, 6-(2-(1-(difluoromethyl)-1H-pyrazol-4-yl)-1H-pyrrolo[2,3-b]pyridin-5-yl)-N-(oxetan-3-yl)picolinamide] | 0.0001 to 10 µM | 0.0001 to 10 µM | –
O=C(Nc1nnc[nH]1)c1cccc(-c2cnc3[nH]c(-c4cnn(C(F)F)c4)cc3c2)n1 [P-019, 6-(2-(1-(difluoromethyl)-1H-pyrazol-4-yl)-1H-pyrrolo[2,3-b]pyridin-5-yl)-N-(4H-1,2,4-triazol-3-yl)picolinamide] | 0.0001 to 10 µM | 0.0001 to 10 µM | –
CC(C)(O)CNC(=O)c1cccc(-c2cnc3[nH]c(-c4cnn(C(F)F)c4)cc3c2)n1 [P-011, 6-(2-(1-(difluoromethyl)-1H-pyrazol-4-yl)-1H-pyrrolo[2,3-b]pyridin-5-yl)-N-(2-hydroxy-2-methylpropyl)picolinamide] | 0.0001 to 10 µM | 0.0001 to 10 µM | –
CC(C)(C#N)NC(=O)c1cccc(-c2cnc3[nH]c(-c4c(F)nn(C(F)F)c4F)c(F)c3c2)n1 [P-003, N-(1-cyano-1-methyl-ethyl)-6-[2-[1-(difluoromethyl)-3,5-difluoro-pyrazol-4-yl]-3-fluoro-1H-pyrrolo[2,3-b]pyridin-5-yl]pyridine-2-carboxamide] | 0.0001 to 10 µM | 0.0001 to 10 µM | –
O=C(Nc1cnc[nH]1)c1cccc(-c2cnc3[nH]c(-c4cnn(C(F)F)c4)cc3c2)n1 [P-017, 6-(2-(1-(difluoromethyl)-1H-pyrazol-4-yl)-1H-pyrrolo[2,3-b]pyridin-5-yl)-N-(1H-imidazol-5-yl)picolinamide] | 0.0001 to 10 µM | 0.0001 to 10 µM | –
O=C(NCC1(O)CCC1)c1cccc(-c2cnc3[nH]c(-c4cnn(C(F)F)c4)cc3c2)n1 [P-013, 6-(2-(1-(difluoromethyl)-1H-pyrazol-4-yl)-1H-pyrrolo[2,3-b]pyridin-5-yl)-N-((1-hydroxycyclobutyl)methyl)picolinamide] | 0.0001 to 10 µM | 0.0001 to 10 µM | –
CC(C)(C#N)NC(=O)c1cccc(-c2cnc3[nH]c(-c4cnn(C(F)F)c4)c(F)c3c2)n1 [P-004, N-(1-cyano-1-methyl-ethyl)-6-[2-[1-(difluoromethyl)pyrazol-4-yl]-3-fluoro-1H-pyrrolo[2,3-b]pyridin-5-yl]pyridine-2-carboxamide] | 0.0001 to 10 µM | 0.0001 to 10 µM | –
CN1CC(NC(=O)c2cccc(-c3cnc4[nH]c(-c5cnn(C(F)F)c5)cc4c3)n2)C1 [P-015, 6-(2-(1-(difluoromethyl)-1H-pyrazol-4-yl)-1H-pyrrolo[2,3-b]pyridin-5-yl)-N-(1-methylazetidin-3-yl)picolinamide] | 0.0001 to 10 µM | 0.0001 to 10 µM | –
O=C(NC1CC(O)C1)c1cccc(-c2cnc3[nH]c(-c4cnn(C(F)F)c4)cc3c2)n1 (centres unmarked) [P-009, 6-(2-(1-(difluoromethyl)-1H-pyrazol-4-yl)-1H-pyrrolo[2,3-b]pyridin-5-yl)-N-(3-hydroxycyclobutyl)picolinamide] | 0.0001 to 10 µM | 0.0001 to 10 µM | –
N#CC1(NC(=O)c2cccc(-c3cnc4[nH]c(-c5cnn(C(F)F)c5)cc4c3)n2)CC1 [P-006, N-(1-cyanocyclopropyl)-6-(2-(1-(difluoromethyl)-1H-pyrazol-4-yl)-1H-pyrrolo[2,3-b]pyridin-5-yl)picolinamide] | 0.0001 to 10 µM | 0.0001 to 10 µM | –
O=C(Nc1ncc[nH]1)c1cccc(-c2cnc3[nH]c(-c4cnn(C(F)F)c4)cc3c2)n1 [P-016, 6-(2-(1-(difluoromethyl)-1H-pyrazol-4-yl)-1H-pyrrolo[2,3-b]pyridin-5-yl)-N-(1H-imidazol-2-yl)picolinamide] | 0.0001 to 10 µM | 0.0001 to 10 µM | –
N#CC1(NC(=O)c2cccc(-c3cnc4[nH]c(-c5cnn(C(F)F)c5)cc4c3)n2)CCC1 [P-007, N-(1-cyanocyclobutyl)-6-(2-(1-(difluoromethyl)-1H-pyrazol-4-yl)-1H-pyrrolo[2,3-b]pyridin-5-yl)picolinamide] | 0.0001 to 10 µM | 0.0001 to 10 µM | –
CC(C)(C#N)NC(=O)c1cc(F)cc(-c2cnc3[nH]c(-c4cnn(C(F)F)c4)cc3c2)n1 [P-024, N-(2-cyanopropan-2-yl)-6-(2-(1-(difluoromethyl)-1H-pyrazol-4-yl)-1H-pyrrolo[2,3-b]pyridin-5-yl)-4-fluoropicolinamide] | 0.0001 to 10 µM | 0.0001 to 10 µM | –
N#CC1(CNC(=O)c2cccc(-c3cnc4[nH]c(-c5cnn(C(F)F)c5)cc4c3)n2)CC1 [P-008, N-((1-cyanocyclopropyl)methyl)-6-(2-(1-(difluoromethyl)-1H-pyrazol-4-yl)-1H-pyrrolo[2,3-b]pyridin-5-yl)picolinamide] | 0.0001 to 10 µM | 0.0001 to 10 µM | –
CC(C)(C#N)NC(=O)c1cncc(-c2cnc3[nH]c(-c4cnn(C(F)F)c4)cc3c2)n1 [P-021, N-(2-cyanopropan-2-yl)-6-(2-(1-(difluoromethyl)-1H-pyrazol-4-yl)-1H-pyrrolo[2,3-b]pyridin-5-yl)pyrazine-2-carboxamide] | 0.0001 to 10 µM | 0.0001 to 10 µM | –
O=C(Nc1ccn[nH]1)c1cccc(-c2cnc3[nH]c(-c4cnn(C(F)F)c4)cc3c2)n1 [P-018, 6-(2-(1-(difluoromethyl)-1H-pyrazol-4-yl)-1H-pyrrolo[2,3-b]pyridin-5-yl)-N-(1H-pyrazol-5-yl)picolinamide] | 0.0001 to 10 µM | 0.0001 to 10 µM | –
